In article PMC11842588, “A first-in-class selective inhibitor of ERK1/2 and ERK5 overcomes drug resistance with a single-molecule strategy” (Signal Transduction and Targeted Therapy, 2025):

Tests used:
MDA-MB-231 cells = assay: MTT cell viability assay; assay type: cell-based
Protocol: (§1) MDA-MB-468 and MDA-MB-436 cells were cultured in Leibovitz’s L-15 medium supplemented with 10% fetal bovine serum. […] All of the cells were cultured at 37 °C in a humidified atmosphere containing 5% CO2.
(§2) Cancer cells were seeded in a density in 96-well plates (2 × 10^3 cells per well). After incubation for 24 h, cancer cells were treated with compounds (0–20 μM) for 72 h.

MDA-MB-468 cells = assay: MTT cell viability assay; assay type: cell-based
Protocol: as §1, §2

MDA-MB-231 xenograft = MDA-MB-231 xenograft tumor growth inhibition; assay type: in vivo, nude mice (BALB/c-nu); details: 50 mg/kg (each drug), intragastric once daily, 16 days, by tumor weight
Protocol: All procedures were performed in accordance with the Laboratory Animals Welfare Act, the Guide for the Care and Use of Laboratory Animals and the Guidelines and Policies. The rodent experiment was approved by IACUC (Institutional Animal Care and Use Committee) in the Experimental Animal Ethics Committee of West China Hospital (Approval No. 2021672A). 48 female nude mice (BALB/c-nu, 5 weeks, 15–18 g, purchased from Beijing HFK Bio-Technology Co., LTD) were acclimatized for one week in an SPF-grade animal facility (ventilated, 20–25 °C, 50–60% humidity). […] When the tumor volume reached approximately 100 mm^3 (V = L × W^2/2), the mice were randomly divided into six groups (n = 8 per group): (1) Control group (normal saline); (2) 25 mg/kg SKLB-D18-treated group; (3) 50 mg/kg SKLB-D18-treated group; (4) 50 mg/kg BVD-523-treated group; (5) 50 mg/kg XMD8-92-treated group; (6) BVD-523 (50 mg/kg) and XMD8-92 (50 mg/kg) combined treatment group. Drugs were freshly prepared with 5% DMSO, 10% Solutol HS-15, and 85% normal saline on the day of administration. Intragastric administration occurred once daily at the same time for 16 consecutive days. And the body weight and tumor volume of mice were measured every three days. After the administration period, all nude mice were euthanized by cervical dislocation the next day. Tumors and vital organs (heart, liver, spleen, lung, kidney) were dissected, and tumors were weighed, then immediately fixed in 4% paraformaldehyde or stored in −80 °C.

ERK1 = ERK1 (Homo sapiens, UniProt P27361); assay: ADP-Glo kinase assay; assay type: biochemical; details: 500 nM
Protocol: (§3) The full-length human ERK1 or ERK2 with His-tag was cloned into a pET28a vector. hERK1/2 were expressed in Escherichia coli BL21(DE3), and then were purified using sequential Ni-NTA and Superdex 200 column steps. The SEC purified sample was then concentrated to 10 mg/ml and stored at −80 °C with buffer containing 20 mM HEPES pH 7.5, 150 mM NaCl. ERK5 (residues 48–395) containing His and GST tags was cloned into the pFastBac vector, and the recombinant plasmid was extracted. The recombinant plasmid was transformed into the DH10bac strain, and monoclonal was selected for culture. The recombinant Bacmid was then extracted according to the instructions of the Baculovirus Shuttle Vector Bacmid Mini Preparation Kit (Beyotime) and validated by PCR. 1 × 10^6/well Sf9 cells were counted for transfection and then amplified to obtain P3 ERK5 recombinant baculovirus. It was added to 2 × 10^6/mL Sf9 cells and incubated at 27 °C for 72 h on a shaker to express ERK5. Cells were lysed and supernatant was collected on a Ni-NTA for purification, and a 250 mM imidazole eluate was collected. Next, digestion by TEV protease was performed overnight while dialysis was performed in approximately 1000 mL of imidazole-free buffer. The digested ERK5 protein was sequentially purified on the Ni-NTA and GST-tag Purification Resin, followed by size exclusion chromatography on a Superdex 75 column. ERK5 protein was collected and concentrated to 12 mg/ml and stored at −80 °C in buffer containing 50 mM HEPES pH 8.0, 200 mM NaCl, 10% (v/v) glycerol.
(§4) ERK1/2/5 kinase activity assay was conducted using ADP-Glo™ Kinase Assay. 2× ATP solution and 2× kinase & Metal solution were prepared using assay buffer were prepared using assay buffer containing 50 mM Hepes pH 7.5, 10 mM MgCl2; 0.01% Brij35, 1 mM EGTA, 2 mM DTT. Transfer 40 nL compounds to 384 assay plate. Add 2 μL of 2× kinase & Metal solution were mixed and incubated in a 384-assay plate for 10 min at 25 °C. 2 μL of 2×ATP solution was added and incubated at 25 °C for 60 min. And then, each well was supplemented with 4 µL of ADP-Glo^TM reagent and incubated at 25 °C for 40 min. Subsequently, 8 µL of Kinase Detection Reagent was added and incubated at 25 °C for 40 min. Finally, the luminescence signals were recorded. The IC50 values were calculated using GraphPad Prism 9.5 software.

ERK2 = ERK2 (Homo sapiens, UniProt P28482); assay: ADP-Glo kinase assay; assay type: biochemical; details: 500 nM
Protocol: as §3, §4

ERK5 = ERK5 (Homo sapiens, UniProt Q13164); assay: ADP-Glo kinase assay; assay type: biochemical; details: 500 nM
Protocol: as §3, §4

Sequence of ERK1 (P27361 whole entry, the tested form may be a part): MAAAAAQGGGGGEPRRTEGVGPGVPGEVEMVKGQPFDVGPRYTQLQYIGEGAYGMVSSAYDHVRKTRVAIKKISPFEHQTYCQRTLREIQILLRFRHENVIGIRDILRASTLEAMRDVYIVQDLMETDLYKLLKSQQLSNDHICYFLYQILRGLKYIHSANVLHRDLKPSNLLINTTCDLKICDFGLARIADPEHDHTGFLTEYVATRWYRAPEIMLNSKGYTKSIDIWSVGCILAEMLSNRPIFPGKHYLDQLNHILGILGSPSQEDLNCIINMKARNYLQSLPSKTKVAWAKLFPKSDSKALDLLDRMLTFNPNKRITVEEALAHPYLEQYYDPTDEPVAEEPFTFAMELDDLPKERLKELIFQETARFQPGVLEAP
Sequence of ERK2 (P28482 whole entry): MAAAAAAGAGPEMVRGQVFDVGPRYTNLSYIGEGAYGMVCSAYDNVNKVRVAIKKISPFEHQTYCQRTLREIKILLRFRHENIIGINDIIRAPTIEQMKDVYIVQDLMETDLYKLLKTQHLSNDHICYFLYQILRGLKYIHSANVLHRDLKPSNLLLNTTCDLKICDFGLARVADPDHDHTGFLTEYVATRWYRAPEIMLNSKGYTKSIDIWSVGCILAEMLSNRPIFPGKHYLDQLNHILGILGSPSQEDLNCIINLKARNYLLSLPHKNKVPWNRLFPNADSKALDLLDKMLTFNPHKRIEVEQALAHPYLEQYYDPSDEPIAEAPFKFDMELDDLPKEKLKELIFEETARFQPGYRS
Sequence of ERK5 (Q13164 whole entry): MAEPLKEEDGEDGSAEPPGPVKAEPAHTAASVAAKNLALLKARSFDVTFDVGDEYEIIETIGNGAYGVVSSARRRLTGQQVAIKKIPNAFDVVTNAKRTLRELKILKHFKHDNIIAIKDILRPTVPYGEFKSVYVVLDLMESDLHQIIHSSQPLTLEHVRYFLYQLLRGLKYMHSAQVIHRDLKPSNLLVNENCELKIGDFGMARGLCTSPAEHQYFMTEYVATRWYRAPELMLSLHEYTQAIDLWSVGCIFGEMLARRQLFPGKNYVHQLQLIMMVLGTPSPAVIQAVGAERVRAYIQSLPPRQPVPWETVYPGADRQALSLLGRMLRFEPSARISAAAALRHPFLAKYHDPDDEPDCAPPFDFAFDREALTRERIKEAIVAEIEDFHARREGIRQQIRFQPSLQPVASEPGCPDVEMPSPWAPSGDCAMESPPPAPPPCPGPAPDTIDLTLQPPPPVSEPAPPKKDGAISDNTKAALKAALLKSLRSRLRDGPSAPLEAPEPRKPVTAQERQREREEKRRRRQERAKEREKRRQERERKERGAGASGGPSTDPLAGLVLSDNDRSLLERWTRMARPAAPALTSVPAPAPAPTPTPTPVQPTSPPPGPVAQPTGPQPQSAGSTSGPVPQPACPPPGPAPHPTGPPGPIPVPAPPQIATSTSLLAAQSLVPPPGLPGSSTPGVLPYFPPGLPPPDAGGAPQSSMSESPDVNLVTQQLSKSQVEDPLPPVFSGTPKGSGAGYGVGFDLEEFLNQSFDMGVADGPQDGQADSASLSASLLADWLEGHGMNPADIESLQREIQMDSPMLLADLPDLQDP

SMILES | IC50 (MDA-MB-231 cells; Homo sapiens, MDA-MB-231, read-out: IC50 MDA-MB-231, MTT, 72 h) [µM] | IC50 (MDA-MB-468 cells; Homo sapiens, MDA-MB-468, MTT, 72 h) [µM] | Enzyme inhibitory activity (500 nM, %) ERK1 (ERK1) [%] | Enzyme inhibitory activity (500 nM, %) ERK2 (ERK2) [%] | Enzyme inhibitory activity (500 nM, %) ERK5 (ERK5) [%] | tumor inhibition rate (MDA-MB-231 xenograft) [%] | Anti-proliferative activity (10 μM, %) MDA-MB-231 (MDA-MB-231 cells) [%] | Anti-proliferative activity (10 μM, %) MDA-MB-468 (MDA-MB-468 cells) [%]
Cn1nccc1Nc1ncc(Cl)c(-c2csc(C(=O)Nc3cccc(N)c3)c2)n1 [6p] |  |  | 86.34 ± 0.79 | 84.67 ± 0.65 | 77.49 ± 0.89 |  | 33.51 ± 0.32 | 28.42 ± 1.21
Cn1nccc1Nc1ncc(Cl)c(-c2csc(C(=O)Nc3cccc(Cl)c3)c2)n1 [6k] |  |  | 59.39 ± 3.21 | 57.85 ± 0.88 | 36.99 ± 0.32 |  | 39.12 ± 1.23 | 23.41 ± 0.48
CSc1ccc(NC(=O)c2cc(-c3nc(Nc4ccnn4C)ncc3Cl)cs2)cc1 [6ac] |  |  | 95.98 ± 1.02 | 97.67 ± 0.90 | 69.90 ± 2.56 |  | 22.57 ± 1.11 | 18.49 ± 0.23
CCOc1cc(N2CCC(O)CC2)ccc1Nc1ncc2c(n1)N(C)c1ccccc1C(=O)N2C [XMD8-92] |  |  |  |  |  | 7.75 |  | 
Cc1cccc(NC(=O)c2cc(-c3nc(Nc4ccnn4C)ncc3Cl)cs2)c1 [6q] |  |  | 80.23 ± 0.68 | 82.11 ±0.61 | 65.90 ± 3.12 |  | 29.43 ± 3.25 | 33.20± 0.44

More lines, main results first:

IC50 (MDA-MB-231 cells; Homo sapiens, MDA-MB-231, read-out: IC50 MDA-MB-231, MTT, 72 h) [µM] | IC50 (MDA-MB-468 cells; Homo sapiens, MDA-MB-468, MTT, 72 h) [µM] | Enzyme inhibitory activity (500 nM, %) ERK1 (ERK1) [%] | Enzyme inhibitory activity (500 nM, %) ERK2 (ERK2) [%] | Enzyme inhibitory activity (500 nM, %) ERK5 (ERK5) [%] | SMILES | tumor inhibition rate (MDA-MB-231 xenograft) [%] | Anti-proliferative activity (10 μM, %) MDA-MB-231 (MDA-MB-231 cells) [%] | Anti-proliferative activity (10 μM, %) MDA-MB-468 (MDA-MB-468 cells) [%]
6.47 ± 0.19 | 5.26 ± 0.66 |  |  |  | CC(C)Nc1cc(-c2c[nH]c(C(=O)N[C@H](CO)c3cccc(Cl)c3)c2)c(Cl)cn1 [BVD-523, reference compound] | 36.01 |  | 
 |  | 41.09 ± 1.05 | 45.57 ± 0.34 | 21.12 ± 2.34 | COc1ccc(NC(=O)c2cc(-c3nc(Nc4ccn(C)n4)ncc3Cl)cs2)cc1 [9a] |  | 1.23 ± 1.20 | 8.70 ± 3.21
 |  | 90.27 ± 1.78 | 91.03 ± 1.23 | 79.74 ± 0.07 | CN(C)Cc1cccc(Nc2ncc(Cl)c(-c3csc(C(=O)NN4CCN(C)CC4)c3)n2)c1 [18n] |  | 54.82 ± 1.21 | 86.37 ± 0.43
 |  | 45.23 ± 2.12 | 43.61 ± 1.45 | 86.64 ± 0.89 | CN(C)Cc1cccc(Nc2ncc(Cl)c(-c3csc(C(=O)Nc4ccnn4C)c3)n2)c1 [18k] |  | 39.77 ± 0.31 | -3.93 ± 1.21
 |  | 77.32 ± 2.34 | 76.45 ± 0.01 | 45.32 ± 0.09 | COc1ccc(NC(=O)c2cc(-c3nc(Nc4ccccc4)ncc3Cl)cs2)cc1 [9e] |  | 23.33 ± 0.56 | 25.10 ± 1.53
